Laboratory results reported in patent US5776944A, “7-(4-aminomethyl-3-methyloxyiminopyrroplidin-1-yl)-1-cyclopropyl-6-flu oro-4-oxo-1,4-dihydro-1,8-naphthyridine-3-carboxylic acid and the process for the preparation thereof” (LG Chemical Ltd., priority 1994, dated 1998).
Converted amounts (≈) assume the structure as drawn. Like-named read-outs stand apart in the source and are kept apart here.

Tests used:
[1] = phosphate buffered solution
[2] = test system: test strains; test: In vitro antibacterial activity, overall finding, Biological Example 4; format: cell-based; conditions: Tables 31 and 32
Experimental: (§1) In order to determine the antibacterial activitiers of the E- and Z-isomner of the compound 180 which were separated in Example 203, and of 7- (4-aminomethyl-3-methyloxylminopyrrolidin-1-yl)-1-cyclopropyl-6-fluoro-4-oxo-1,4-dihydro-1,8-naphthyridine-3-carboxylic acid methanesulfonate prepared in Example 204, in vitro antibacterial activities of them were measured using agar medium dilution method. The results were as described in the following Tables 31 and 32.

[3] = Moisture content according to hydration number; format: physicochemical; conditions: actual moisture content, methanesulfonate hydrates
Experimental: The moisture content of the hydrate varies with the hydration number (n) of the hydrated molecule. Since the molecular weight of 7-(4-amino-methyl-3-methyloxylminopyrrolidin-1-yl)-1-cyclopropyl-6-fluoro- 4-oxo-1,4-dihydro-1,8-naphthyridine-3-carboxylic acid methanesulfonate is 485.5, the moisture content of the hydrate for n equal to 1, 1.5, 2, 2.5, 3, 3.5 or 4 is calculated to be 3.6%, […], 6.9%, 8.5%, 10.0%, 11.5% or 12.9%, respectively. However, the actual moisture content may differ from the calculated moisture content depending on differences in recrystallization conditions, drying conditions, etc.

[4] = test system: Pseudomonas aeruginosa 10145; test: In vitro antibacterial activity (MIC, agar medium dilution), Biological Example 4; format: cell-based; conditions: Pseudomonas aeruginosa, 10145, 18 h, Pseudomonas aeruginosa 10145, Table 32, ratio of weight; read-out: Minimum Inhibitory Concentration: MIC
[5] = test system: Seratis marsecence 1826E; test: as above; format: cell-based
Experimental: as §1

[6] = test system: Pseudomonas aeruginosa 6065Y; test: as above; format: cell-based; conditions: 18 h, Table 31, read-out: Minimum Inhibitory Concentration: MIC
Experimental: as §1

[7] = test system: Escherichia coli TEM3 3455E; test: as above; format: cell-based; conditions: TEM33455E, 18 h, read-out: Minimum Inhibitory Concentration: MIC, Escherichia coli TEM3 3455E, Table 32, ratio of weight
[8] = test system: Streptococcus faecalis 29212; test: as above; format: cell-based; conditions: Enterococcus faecalis, 29212, 18 h, Streptococcus faecalis 29212, Table 31; read-out: Minimum Inhibitory Concentration: MIC
[9] = test system: Staphylococcus epidermidis 887E; test: as above; format: cell-based; conditions: 18 h, Staphylococcus epidermidis 887E, Table 31, read-out: Minimum Inhibitory Concentration: MIC
[10] = physchem; conditions: phosphate buffered solution

In the case of CON=C1CN(c2nc3c(cc2F)c(=O)c(C(=O)O)cn3C2CC2)CC1CN (stereo not drawn) [Sulfurate], the “Water Solubility” value ([1]; pH 2) is reported as 8.9 and the “Water Solubility” value ([1]; pH 7) is reported as 11.4.
With CON=C1CN(c2nc3c(cc2F)c(=O)c(C(=O)O)cn3C2CC2)CC1CN (stereo not drawn) [free form, 7-(4-aminomethyl-3-methyloxyiminopyrrolidin-1-yl)-1-cyclopropyl-6-fluoro-4-oxo-1,4-dihydro-1,8-naphthyridine-3-carboxylic acid] the “Water Solubility” value ([1]; pH 2) was 14.6, the “Water Solubility” value ([1]; pH 7) was 0.007 and the antibacterial activity [2] was “excellent antibacterial activity”.
In the case of CON=C1CN(c2nc3c(cc2F)c(=O)c(C(=O)O)cn3C2CC2)CC1CN (stereo not drawn) [2.5 hydrate, 7-(4-aminomethyl-3-methyloxylminopyrrolidin-1-yl)-1-cyclopropyl-6-fluoro-4-oxo-1,4-dihydro-1,8-naphthyridine-3-carboxylic acid methanesulfonate], the “Moisture Content” value [3] is reported as 8-9%.
With O=C(O)c1cn(C2CC2)c2cc(N3CCNCC3)c(F)cc2c1=O [Ciprofloxacin, ciprofloxacin, reference compound] the MIC [4] was 0.5 µg/mL, the MIC ([5]; 18 h, Table 31, read-out: Minimum Inhibitory Concentration: MIC) was 0.063 µg/mL (≈ 0.19 µM) and the “Minimum Inhibitory Concentration: MIC” value ([5]; Table 32, ratio of weight) was 0.063 µg/mL. The MIC [6] was 4 µg/mL (≈ 12.1 µM), the MIC [7] was 0.5 µg/mL and the MIC [8] was 1 µg/mL (≈ 3.02 µM). The MIC [9] was 0.063 µg/mL (≈ 0.19 µM).
Compound CON=C1CN(c2nc3c(cc2F)c(=O)c(C(=O)O)cn3C2CC2)CC1CN (stereo not drawn) [Tartarate] has a solubility ([10]; pH 2) of 15.4 mg/mL (≈ 39500 µM) and a solubility ([10]; pH 7) of 6.7 mg/mL (≈ 17200 µM).
